{"source": "patent US12233087B2", "about": "“Palladium hyaluronic acid particles and methods of managing cancer or angiogenic conditions” (Emory University, priority 2018, dated 2025)", "key": {"[1]": {"assay": "Dispersion of free vs HANP-loaded Tris DBA-Pd in water, FBS and cell culture media", "assay_type": "physicochemical", "method": "Hyaluronic Acid (HA)-5β-cholanic acid conjugate was synthesized by linking the carboxyl group of HA with the amino group on 5β-cholanic acid in the presence of EDC and NHS (FIG. 1). Hyaluronic Acid nanoparticles/Tris-DBA palladium were prepared. Water-insoluble Tris DBA-Pd was physically encapsulated into the hydrophobic cavities by a high-pressure homogenizer. This allowed for the dispersion of Tris DBA-Pd under physiological conditions. After freeze-drying, 40 mg of HANPs were dispersed in 8 mL of distilled water and 10 mg of Tris DBA-Pd was dissolved in 2 mL dimethyl sulfoxide (DMSO). The Tris DBA-Pd solution was slowly added into the HANP in high pressure homogenizer and homogenized for 5 min. Finally, the resulting mixture was dialyzed for 4 hours against an excess amount of distilled water to remove unloaded drugs and organic solvent, followed by lyophilization.\nTo verify the encapsulation of Tris DBA-Pd, the size changes were compared before and after loading."}, "[2]": {"tested_on": "LM36R human melanoma cells", "assay": "LM36R vemurafenib-resistant melanoma xenograft tumor growth in nude mice", "assay_type": "in vivo, athymic Nu/Nu nude male mice", "settings": "5 mg of drug/kg per injection, bi-weekly tail vein injections, 4 weeks, n=5 per group; p-value 0.048 at week 4", "method": "Nude male mice were inoculated with LM36R (5.0×10^5 cells), a human cell line of melanoma that is resistant to vemurafenib, and then treated with HANPs over the course of four weeks.\nVemurafenib-resistant LM36R human melanoma cells were inoculated (5.0×10^5 cells/mouse) into the right flank of athymic Nu/Nu nude male mice (Crl:NU-Foxn1^nu strain code 088)) n=5 per group, and progression of tumor was recorded using the volume model of length×(width)×0.52. Mice were split into four groups consisting of a control (empty HANP), free Tris DBA-Pd, HANP with Tris DBA-Pd, and HANP with Tris DBA-Pd and aIGF1R antibody. Free Tris DBA-Pd was first dissolved in DMSO and then mixed with Kolliphor EL™. At last, the mixture was diluted by H2O before injection at concentration of 1 mg/mL of DBA. The ratio of DMSO, Kolliphor EL™ and H2O was controlled as 1:2:7 (v/v). The treatments were administered through bi-weekly tail vein injections over the course of 4 weeks (5 mg of drug/kg per injection). Tumor samples were analyzed for CD44 (hyaluronate receptor) expression by immunohistochemistry."}, "LM36R xenograft tumor": {"tested_on": "LM36R xenograft tumor", "assay": "Gene array / whole-transcriptome expression analysis of treated tumors", "assay_type": "in vivo, human", "method": "Gene array was performed on all tumors. […] By varying the delivery process of a single drug, one might be able to prevent resistance.\nRNA Extraction and QC: RNA was extracted using the Qiagen miRNEasy™ kit with on column DNAse treatment. Tissue was lysed and homogenized in Qiazol™ with a rotor-stator probe homogenizer for 40 seconds or until fully disrupted (1 ml Qiazol™ per 100 mg of tissue). RNA was eluted in 50 ul nuclease free water. One microliter was used to determine OD (optical density) values on a Nanodrop 1000. One microliter was used to assess sample profiles on the Agilent 2100 using the RNA 6000 Nano assay. Total RNA (250 ng) was amplified and labeled using the ThermoFisher Scientific Illuina™ TotalPrep™ RNA Amplification kit. Labeled cRNA was hybridized to Illumina HT12™ bead array. Image acquisition and data extraction were performed."}, "[3]": {"settings": "general statement, water, cited from earlier work"}, "melanoma": {"tested_on": "melanoma", "settings": "Clin Cancer Res. 2008, 14:5743-5748; cited from earlier work"}, "[4]": {"target": "N-myristoyltransferase 1 (NMT1) (Homo sapiens, UniProt P30419)", "sequence (P30419 whole entry, species assumed)": "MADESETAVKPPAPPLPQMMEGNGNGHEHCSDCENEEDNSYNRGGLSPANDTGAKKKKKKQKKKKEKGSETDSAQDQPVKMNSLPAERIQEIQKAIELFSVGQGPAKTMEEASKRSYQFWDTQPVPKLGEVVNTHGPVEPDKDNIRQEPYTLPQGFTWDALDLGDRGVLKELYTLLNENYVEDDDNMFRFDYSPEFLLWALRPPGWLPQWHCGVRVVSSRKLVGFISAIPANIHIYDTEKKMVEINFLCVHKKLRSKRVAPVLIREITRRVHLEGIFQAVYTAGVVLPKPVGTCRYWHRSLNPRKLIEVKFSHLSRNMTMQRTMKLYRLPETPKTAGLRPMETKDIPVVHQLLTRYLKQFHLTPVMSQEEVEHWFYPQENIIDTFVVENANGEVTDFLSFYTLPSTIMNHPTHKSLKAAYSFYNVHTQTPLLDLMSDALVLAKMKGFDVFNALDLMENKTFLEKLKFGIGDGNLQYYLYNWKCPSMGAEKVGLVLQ", "settings": "reported in the literature; cited from earlier work"}, "IGF1R": {"tested_on": "IGF1R", "assay": "Immunohistochemistry of tumor xenografts for IGF1R", "assay_type": "in vivo, human", "settings": "IHC, LM36R xenograft", "method": "Immunohistochemistry was performed to qualitatively assess expression of target genes. […] To assess the impact of our treatments on IGF1R expression, IHC was used to stain the tumor xenografts with antibodies against IGF1R."}, "[5]": {"settings": "at 25° C.; cited from earlier work"}}, "note": "Read-outs that look alike come from different tables or passages of the source."}
{"molecule": "O=C(/C=C/c1ccccc1)/C=C/c1ccccc1.O=C(/C=C/c1ccccc1)/C=C/c1ccccc1.O=C(/C=C/c1ccccc1)/C=C/c1ccccc1.[Pd].[Pd]", "note": "[free Tris DBA-Pd, Tris(dibenzylideneacetone)dipalladium]", "values": [{"measurement": "behaviour in water, FBS, and cell culture media (precipitation / dispersion)", "setting": "[1]", "value": "immediately precipitated"}, {"measurement": "inhibition of growth of LM36R tumors", "setting": "[2]", "value": "showed efficacy"}, {"measurement": "SCG2 (secretogranin 2) expression", "setting": "LM36R xenograft tumor", "value": "downregulated"}, {"measurement": "solubility", "setting": "[3]; listed as Tris (dibenzylideneacetone) dipalladium", "value": "poor solubility"}, {"measurement": "solubility", "setting": "[3]; listed as Tris DBA-Pd", "value": "Water-insoluble"}, {"measurement": "effect on melanoma growth", "setting": "melanoma", "value": "effective against melanoma growth"}, {"measurement": "activity against NMT1", "setting": "[4]", "value": "activity against the enzyme N-myristoyltransferase 1"}]}
{"molecule": "Tris DBA-Pd HANPs coupled with anti-IGF1R antibodies: Tris DBA-Pd HANP with anti-IGF1R monoclonal antibodies (Dalotuzumab) conjugated onto the surface", "values": [{"measurement": "intensity of IGF1R staining", "setting": "IGF1R", "value": "decreased the intensity of IGF1R staining more so than the other groups"}]}
{"molecule": "CCCCCCCC", "note": "[octane]", "values": [{"measurement": "percent solubility in water by weight", "setting": "[5]", "value": "0.63×10^−4 % w/w"}]}
